Assay results: patent publication US20230346961A1, “GLP-1 AND GIP RECEPTOR CO-AGONISTS” (Novo Nordisk A/S, priority 2020, published 2023)
Where two headings read alike, the source gives them in different places. Starred links: 1 amine or outer side, 2 acyl side, 3 side chain; linkers in the order of their positions; H or OH if unused. Non-standard residues stand in square brackets, D forms with d. Residues, ends and D or L forms follow the SMILES beside them. Groups on a side chain read outwards from the residue. *: point of attachment. C20 diacid = O=C(O)CCCCCCCCCCCCCCCCCCC(=O)*; γGlu = O=C(O)[C@H](CCC(=O)[*:2])N[*:1]; εLys = N[C@@H](CCCCN[*:1])C(=O)[*:2]; Trx = NC[C@H]1CC[C@H](C(=O)O)CC1; AEEA = NCCOCCOCC(=O)O; Aib = CC(C)(N)C(=O)O

Key:
mouse GLP-1 receptor = target: T1, mouse GLP-1 receptor (Mus musculus, UniProt O35659)
T1 sequence (O35659 22-463): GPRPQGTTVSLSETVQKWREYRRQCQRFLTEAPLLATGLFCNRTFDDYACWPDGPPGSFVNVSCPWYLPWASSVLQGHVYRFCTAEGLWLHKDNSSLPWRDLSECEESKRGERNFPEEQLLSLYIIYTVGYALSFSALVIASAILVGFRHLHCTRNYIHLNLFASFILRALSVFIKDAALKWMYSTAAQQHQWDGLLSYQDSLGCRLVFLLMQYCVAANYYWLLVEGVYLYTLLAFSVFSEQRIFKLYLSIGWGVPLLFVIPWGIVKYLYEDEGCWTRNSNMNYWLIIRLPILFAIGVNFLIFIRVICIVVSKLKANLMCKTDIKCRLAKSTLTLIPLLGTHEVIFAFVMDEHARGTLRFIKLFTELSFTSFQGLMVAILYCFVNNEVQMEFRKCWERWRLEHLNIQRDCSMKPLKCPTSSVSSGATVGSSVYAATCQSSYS

mouse GIP receptor = target: T2, mouse GIP receptor (Mus musculus, UniProt Q0P543); test: cell-based
T2 sequence (Q0P543 19-460): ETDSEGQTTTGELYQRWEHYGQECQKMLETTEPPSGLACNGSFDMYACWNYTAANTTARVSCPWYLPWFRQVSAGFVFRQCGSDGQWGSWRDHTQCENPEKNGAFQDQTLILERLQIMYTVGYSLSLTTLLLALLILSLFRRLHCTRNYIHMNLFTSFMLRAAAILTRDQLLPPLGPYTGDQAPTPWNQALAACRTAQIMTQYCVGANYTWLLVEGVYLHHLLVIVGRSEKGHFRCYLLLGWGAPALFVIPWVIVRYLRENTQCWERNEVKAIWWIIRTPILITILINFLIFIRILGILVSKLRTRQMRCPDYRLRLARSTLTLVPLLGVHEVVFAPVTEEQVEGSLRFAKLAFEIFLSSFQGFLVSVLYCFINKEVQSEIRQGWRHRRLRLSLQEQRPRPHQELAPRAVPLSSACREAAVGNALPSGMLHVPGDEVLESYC
Description: (§1) The in vitro functional potency is the measure of target receptor activation in a whole cell assay.
(§2) In vitro functional potency was determined by measuring the response of the target receptor in a reporter gene assay in individual cell lines. […] When the respective receptor is activated, it results in the production of cAMP, which in turn results in expression of the luciferase protein. When assay incubation is completed, luciferase substrate (luciferin) is added resulting in the enzymatic conversion of luciferin to oxyluciferin and producing bioluminescence. The luminescence is measured as the readout for the assay.
(§3) The cells lines used in these assays were BHK cells with BHKTS13 as a parent cell line. The cell lines were derived from a clone containing the CRE luciferase element and were established by further transfection with the respective receptor to obtain the relevant cell line.
(§4) The cells were cultured at 37° C. with 5% CO2 in Cell Culture Medium. They were aliquoted and stored in liquid nitrogen. The cells were kept in continuous culture and were seeded out the day before each assay.
(§5) GLP-1R and GcgR Cell Culture Medium consisted of DMEM medium with 10% FBS, 500 μg/mL G418, and 300 μg/mL hygromycin. GIPR Cell Culture Medium consisted of DMEM medium with 10% FBS, 400 μg/mL G418, and 300 μg/mL hygromycin. Assay Buffer consisted of DMEM w/o phenol red, 10 mM Hepes, 1×Glutamax, 1% ovalbumin, and 0.1% Pluronic F-68 with the addition of HSA at twice the final assay concentration.
(§6) • 1) Cells were plated at 5000 cells/well and incubated overnight in the assay plate. • 2) Cells were washed once in DPBS. • 3) Stocks of the test compounds and reference compounds in concentrations ranging from 100-300 μM were diluted 1:150 in Assay Buffer. Compounds were then diluted 1:10 in column 1 of a 96 deep well dilution plate and then carried across the row creating a 3.5 fold, 12 point dilution curve. • 4) Assay Buffer (50 μl aliquot) with or without HSA was added to each well in the assay plate. • 5) A 50 μl aliquot of compound or blank was transferred from the dilution plate to the assay plate containing the Assay Buffer with or without HSA. • 6) The assay plate was incubated for 3 h in a 5% CO2 incubator at 37° C. 7) The cells were washed once with DPBS. • 8) A 100 μl aliquot of DPBS was added to each well of the assay plate. • 9) A 100 μl aliquot of steadylite plus reagent (light sensitive) was added to each well of the assay plate. • 10) Each assay plate was covered with aluminum foil to protect it from light and shaken at 250 RPM for 30 min at room temperature. • 11) Each assay plate was read in a microtiter plate reader.
(§7) The data from the microtiter plate reader was first regressed in an Excel in order to calculate the x-axis, log scale concentrations based on the individual test compound's stock concentration and the dilutions of the assay. […] The software performs a non-linear regression (log(agonist) vs response). A minimum of two replicates was measured for each sample. The reported values are averages of the replicates.

[1] = Pharmacokinetic study in minipigs (terminal half-life after i.v. administration); format: in vivo; conditions: female, Göttingen, minipig, iv
Description: The purpose of this example is to determine the half-life in vivo of the derivatives of the present invention after i.v. administration to minipigs, i.e. the prolongation of their time in the body and thereby their time of action. This is done in a pharmacokinetic (PK) study, where the terminal half-life of the derivative in question is determined. By terminal half-life is generally meant the period of time it takes to […] certain plasma concentration, measured after the initial distribution phase. Female Göttingen minipigs were obtained from Ellegaard Göttingen Minipigs (Dalmose, Denmark) approximately 7-14 months of age and weighing from approximately 16-35 kg were used in the studies. The minipigs were housed individually and fed restrictedly once daily with SDS minipig diet (Special Diets Services, Essex, UK). After at 3 weeks of acclimatisation two permanent central venous catheters were implanted in vena cava caudalis in each animal. The animals were allowed 1 week recovery after the surgery, and were then used for repeated pharmacokinetic studies with a suitable wash-out period between successive derivative dosing. The animals were fasted for approximately 18 hours before dosing and from 0 to 4 hours after dosing, but had adlibitum access to water during the whole period. […] Blood samples (for example 0.8 mL) were collected in 8 mM EDTA buffer and then centrifuged at 4° C. and 1942 g for 10 minutes. Plasma was pipetted into Micronic tubes on dry ice and kept at -20° C. until analysed for plasma concentration of the compounds using ELISA, or a similar antibody-based assay, or LCMS. […] (Pharsight Inc., Mountain View, CA, USA), and the resulting terminal half-lives (harmonic mean) determined.

human GLP-1 receptor = human GLP-1 receptor (Homo sapiens, UniProt P43220); test: cell-based; conditions: hGLP-1R
human GLP-1 receptor, sequence (P43220 24-463): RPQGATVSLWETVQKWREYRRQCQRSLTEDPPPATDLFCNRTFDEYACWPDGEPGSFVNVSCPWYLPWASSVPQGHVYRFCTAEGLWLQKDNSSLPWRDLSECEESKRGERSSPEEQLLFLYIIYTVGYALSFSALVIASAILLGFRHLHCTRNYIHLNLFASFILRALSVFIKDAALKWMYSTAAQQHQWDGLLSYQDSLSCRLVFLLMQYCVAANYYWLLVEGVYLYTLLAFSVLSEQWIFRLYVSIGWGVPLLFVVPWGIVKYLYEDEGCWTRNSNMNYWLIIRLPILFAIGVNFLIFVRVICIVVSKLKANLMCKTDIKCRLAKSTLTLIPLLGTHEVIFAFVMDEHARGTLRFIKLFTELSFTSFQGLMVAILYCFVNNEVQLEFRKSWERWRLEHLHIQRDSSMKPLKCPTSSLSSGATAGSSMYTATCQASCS

human glucagon receptor = human glucagon receptor (Homo sapiens, UniProt P47871); test: cell-based
human glucagon receptor, sequence (P47871 26-477): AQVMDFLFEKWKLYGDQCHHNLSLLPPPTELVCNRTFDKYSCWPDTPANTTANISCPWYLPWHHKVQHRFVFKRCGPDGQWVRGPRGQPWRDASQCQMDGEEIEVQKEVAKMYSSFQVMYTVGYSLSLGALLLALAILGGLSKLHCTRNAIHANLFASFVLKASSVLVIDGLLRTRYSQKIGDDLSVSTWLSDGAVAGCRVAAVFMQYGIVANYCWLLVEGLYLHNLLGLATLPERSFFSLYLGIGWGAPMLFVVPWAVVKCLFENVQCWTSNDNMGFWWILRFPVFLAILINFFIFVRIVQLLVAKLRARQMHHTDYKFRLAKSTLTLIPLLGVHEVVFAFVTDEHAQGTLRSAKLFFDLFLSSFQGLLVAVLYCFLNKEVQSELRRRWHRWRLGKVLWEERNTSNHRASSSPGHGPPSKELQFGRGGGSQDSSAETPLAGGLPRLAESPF
Description: as §1, §2, §3, §4, §5, §6, §7

[2] = in vivo, minipigs, i.v. administration, harmonic mean, read-out: Terminal half-life t1/2 (converted)

## CC[C@H](C)[C@H](NC(=O)[C@H](CO)NC(=O)[C@H](Cc1ccc(O)cc1)NC(=O)[C@H](CC(=O)O)NC(=O)[C@H](CO)NC(=O)[C@@H](NC(=O)[C@H](Cc1ccccc1)NC(=O)[C@@H](NC(=O)CNC(=O)[C@H](CCC(=O)O)NC(=O)C(C)(C)NC(=O)[C@@H](N)Cc1ccc(O)cc1)[C@@H](C)O)[C@@H](C)O)C(=O)N[C@@H](Cc1ccc(O)cc1)C(=O)N[C@@H](CC(C)C)C(=O)N[C@@H](CCC(=O)O)C(=O)N[C@@H](CCCCN)C(=O)N[C@@H](CCCCNC(=O)COCCOCCNC(=O)COCCOCCNC(=O)CC[C@H](NC(=O)[C@H]1CC[C@H](CNC(=O)CCCCCCCCCCCCCCCCCCC(=O)O)CC1)C(=O)O)C(=O)N[C@@H](C)C(=O)N[C@@H](C)C(=O)NC(C)(C)C(=O)N[C@@H](CCC(=O)O)C(=O)N[C@@H](Cc1ccccc1)C(=O)N[C@H](C(=O)N[C@@H](CC(N)=O)C(=O)N[C@@H](Cc1c[nH]c2ccccc12)C(=O)N[C@@H](CC(C)C)C(=O)N[C@@H](CC(C)C)C(=O)N[C@@H](C)C(=O)NCC(=O)NCC(=O)N1CCC[C@H]1C(=O)N[C@@H](CO)C(=O)N[C@@H](CO)C(=O)NCC(=O)N[C@@H](C)C(=O)N1CCC[C@H]1C(=O)N1CCC[C@H]1C(=O)N1CCC[C@H]1C(=O)N[C@@H](CO)C(N)=O)C(C)C [Compound 22] (H-Y[Aib]EGTFTSDYSIYLEKK([AEEA-AEEA-γGlu-Trx-C20 diacid])AA[Aib]EFVNWLLAGGPSSGAPPPS-NH2; N-terminus assumed)
Mouse GLP-1 receptor
  EC50: 0.0021 nM
Mouse GIP receptor
  EC50: 0.124 nM
[1]; in vivo
  half-life: 95 h
Human GLP-1 receptor; CRE Luc 0% HSA EC50, 0% HSA
  EC50: 0.0033 nM
Human GLP-1 receptor; CRE Luc 1% HSA EC50, 1% HSA
  EC50: 1.13 nM
Human glucagon receptor
  EC50: > 10 nM

## CC[C@H](C)[C@H](NC(=O)[C@H](CO)NC(=O)[C@H](Cc1ccc(O)cc1)NC(=O)[C@H](CC(=O)O)NC(=O)[C@H](CO)NC(=O)[C@@H](NC(=O)[C@H](Cc1ccccc1)NC(=O)[C@@H](NC(=O)CNC(=O)[C@H](CCC(=O)O)NC(=O)C(C)(C)NC(=O)[C@@H](N)Cc1ccc(O)cc1)[C@@H](C)O)[C@@H](C)O)C(=O)N[C@@H](Cc1ccc(O)cc1)C(=O)N[C@@H](CC(C)C)C(=O)N[C@@H](CCC(=O)O)C(=O)N[C@@H](CCCCNC(=O)[C@@H](N)CCCCNC(=O)[C@@H](N)CCCCNC(=O)CC[C@H](NC(=O)[C@H]1CC[C@H](CNC(=O)CCCCCCCCCCCCCCCCCCC(=O)O)CC1)C(=O)O)C(=O)N[C@@H](CCC(N)=O)C(=O)N[C@@H](C)C(=O)N[C@@H](C)C(=O)NC(C)(C)C(=O)N[C@@H](CCC(=O)O)C(=O)N[C@@H](Cc1ccccc1)C(=O)N[C@H](C(=O)N[C@@H](CC(N)=O)C(=O)N[C@@H](Cc1c[nH]c2ccccc12)C(=O)N[C@@H](CC(C)C)C(=O)N[C@@H](CC(C)C)C(=O)N[C@@H](C)C(=O)NCC(=O)NCC(=O)N1CCC[C@H]1C(=O)N[C@@H](CO)C(=O)N[C@@H](CO)C(=O)NCC(=O)N[C@@H](C)C(=O)N1CCC[C@H]1C(=O)N1CCC[C@H]1C(=O)N1CCC[C@H]1C(=O)N[C@@H](CO)C(N)=O)C(C)C [Compound 20] (H-Y[Aib]EGTFTSDYSIYLEK([εLys-εLys-γGlu-Trx-C20 diacid])QAA[Aib]EFVNWLLAGGPSSGAPPPS-NH2; N-terminus assumed)
Mouse GLP-1 receptor
  EC50: 0.0026 nM
Mouse GIP receptor
  EC50: 0.012 nM
[1]; [2]
  half-life: 88 h
Human GLP-1 receptor; CRE Luc 0% HSA EC50, 0% HSA
  EC50: 0.0033 nM
Human GLP-1 receptor; CRE Luc 1% HSA EC50, 1% HSA
  EC50: 0.261 nM
Human glucagon receptor
  EC50: > 10 nM

## CC[C@H](C)[C@H](NC(=O)[C@H](CO)NC(=O)[C@H](Cc1ccc(O)cc1)NC(=O)[C@H](CC(=O)O)NC(=O)[C@H](CO)NC(=O)[C@@H](NC(=O)[C@H](Cc1ccccc1)NC(=O)[C@@H](NC(=O)CNC(=O)[C@H](CCC(=O)O)NC(=O)C(C)(C)NC(=O)[C@@H](N)Cc1ccc(O)cc1)[C@@H](C)O)[C@@H](C)O)C(=O)N[C@@H](Cc1ccc(O)cc1)C(=O)N[C@@H](CC(C)C)C(=O)N[C@@H](CCC(=O)O)C(=O)N[C@@H](CCC(=O)O)C(=O)N[C@@H](CCC(N)=O)C(=O)N[C@@H](C)C(=O)N[C@@H](C)C(=O)NC(C)(C)C(=O)N[C@@H](CCCCNC(=O)[C@@H](N)CCCCNC(=O)[C@@H](N)CCCCNC(=O)CC[C@H](NC(=O)[C@H]1CC[C@H](CNC(=O)CCCCCCCCCCCCCCCCCCC(=O)O)CC1)C(=O)O)C(=O)N[C@@H](Cc1ccccc1)C(=O)N[C@H](C(=O)N[C@@H](CC(N)=O)C(=O)N[C@@H](Cc1c[nH]c2ccccc12)C(=O)N[C@@H](CC(C)C)C(=O)N[C@@H](CC(C)C)C(=O)N[C@@H](C)C(=O)NCC(=O)NCC(=O)N1CCC[C@H]1C(=O)N[C@@H](CO)C(=O)N[C@@H](CO)C(=O)NCC(=O)N[C@@H](C)C(=O)N1CCC[C@H]1C(=O)N1CCC[C@H]1C(=O)N1CCC[C@H]1C(=O)N[C@@H](CO)C(N)=O)C(C)C [Compound 19] (H-Y[Aib]EGTFTSDYSIYLEEQAA[Aib]K([εLys-εLys-γGlu-Trx-C20 diacid])FVNWLLAGGPSSGAPPPS-NH2; N-terminus assumed)
Mouse GLP-1 receptor
  EC50: 0.0055 nM
Mouse GIP receptor
  EC50: 0.134 nM
[1]; [2]
  half-life: 112 h
Human GLP-1 receptor; CRE Luc 0% HSA EC50, 0% HSA
  EC50: 0.0046 nM
Human GLP-1 receptor; CRE Luc 1% HSA EC50, 1% HSA
  EC50: 0.297 nM
Human glucagon receptor
  EC50: > 10 nM

## CC[C@H](C)[C@H](NC(=O)[C@H](CO)NC(=O)[C@H](Cc1ccc(O)cc1)NC(=O)[C@H](CC(=O)O)NC(=O)[C@H](CO)NC(=O)[C@@H](NC(=O)[C@H](Cc1ccccc1)NC(=O)[C@@H](NC(=O)CNC(=O)[C@H](CCC(=O)O)NC(=O)C(C)(C)NC(=O)[C@@H](N)Cc1ccc(O)cc1)[C@@H](C)O)[C@@H](C)O)C(=O)N[C@@H](Cc1ccc(O)cc1)C(=O)N[C@@H](CC(C)C)C(=O)N[C@@H](CCC(=O)O)C(=O)N[C@@H](CCCCNC(=O)[C@@H](N)CCCCNC(=O)[C@@H](N)CCCCNC(=O)CC[C@H](NC(=O)CCCCCCCCCCCCCCCCCCC(=O)O)C(=O)O)C(=O)N[C@@H](CCC(N)=O)C(=O)N[C@@H](C)C(=O)N[C@@H](C)C(=O)NC(C)(C)C(=O)N[C@@H](CCC(=O)O)C(=O)N[C@@H](Cc1ccccc1)C(=O)N[C@H](C(=O)N[C@@H](CC(N)=O)C(=O)N[C@@H](Cc1c[nH]c2ccccc12)C(=O)N[C@@H](CC(C)C)C(=O)N[C@@H](CC(C)C)C(=O)N[C@@H](C)C(=O)NCC(=O)NCC(=O)N1CCC[C@H]1C(=O)N[C@@H](CO)C(=O)N[C@@H](CO)C(=O)NCC(=O)N[C@@H](C)C(=O)N1CCC[C@H]1C(=O)N1CCC[C@H]1C(=O)N1CCC[C@H]1C(=O)N[C@@H](CO)C(N)=O)C(C)C [Compound 28] (H-Y[Aib]EGTFTSDYSIYLEK([εLys-εLys-γGlu-C20 diacid])QAA[Aib]EFVNWLLAGGPSSGAPPPS-NH2; N-terminus assumed)
Mouse GLP-1 receptor
  EC50: 0.0023 nM
Mouse GIP receptor
  EC50: 0.026 nM
[1]; plasma, minipigs, i.v. administration, harmonic mean, read-out: Terminal half-life t1/2 (converted)
  half-life: 111 h
Human GLP-1 receptor; CRE Luc 0% HSA EC50, 0% HSA
  EC50: 0.005 nM
Human GLP-1 receptor; CRE Luc 1% HSA EC50, 1% HSA
  EC50: 0.356 nM
Human glucagon receptor
  EC50: > 10 nM
